Experimental data published in ChEMBL document CHEMBL1201862, “PubChem BioAssay data set” (2004).
The source made the active and inactive calls.

How the values were obtained:
[1] = microbe, parasite or virus in culture; assay type: functional; details: Mycobacterium tuberculosis
Cytochrome P450 2C9 = Cytochrome P450 2C9 (Homo sapiens, UniProt P11712)
[2] = viability of PTEN-deleted HCT116 cells – cell-based, HCT116 PTEN knockout, dose response (AID 1047); assay type: functional;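 also: HCT116 colon tumor cells with PTEN knocked out; cells exposed to compound for 60 hours before readout; potency for loss of cell viability measured by luminescence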
[3] = viability of HCT116 lacking mutant beta-catenin – cell-based, human colon tumor, dose response (AID 1045); assay type: functional;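 also: HCT116 colon tumor cells with beta catenin knocked out; cells exposed to compound for 60 hours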
[4] = biological target: T1, Calpain-2 catalytic subunit (Sus scrofa, UniProt P43367); test: m-calpain protease blockers, concentration series – biochemical, fluorogenic peptide substrate, dose response (AID 1420); assay type: functional
T1 sequence (P43367 whole entry): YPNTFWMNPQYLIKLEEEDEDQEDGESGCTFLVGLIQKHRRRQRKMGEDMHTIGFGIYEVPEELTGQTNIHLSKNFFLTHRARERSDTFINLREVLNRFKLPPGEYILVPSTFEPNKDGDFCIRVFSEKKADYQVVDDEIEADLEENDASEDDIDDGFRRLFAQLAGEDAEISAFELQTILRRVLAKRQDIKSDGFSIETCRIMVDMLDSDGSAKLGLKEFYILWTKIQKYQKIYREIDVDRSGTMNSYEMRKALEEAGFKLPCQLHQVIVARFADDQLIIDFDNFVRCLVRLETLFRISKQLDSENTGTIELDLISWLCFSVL

Cytochrome P450 2D6 = Cytochrome P450 2D6 (Homo sapiens, UniProt P10635);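 also: CYP2D6 member of a cytochrome P450 panel assay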
[5] = biological target: T2, Heat shock factor protein 1 (Mus musculus, UniProt P38532); test: decrease of HSF1-responsive luciferase luminescence – cell-based, NIH3T3, dose retest, confirmation (AID 2382); assay type: functional;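 also: NIH3T3 fibroblasts with HSF1-driven luciferase reporter stressed by proteasome inhibitor MG132; luminescence from HSF1-driven luciferase expression after 8 hours of MG132 stress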
T2 sequence (P38532 whole entry): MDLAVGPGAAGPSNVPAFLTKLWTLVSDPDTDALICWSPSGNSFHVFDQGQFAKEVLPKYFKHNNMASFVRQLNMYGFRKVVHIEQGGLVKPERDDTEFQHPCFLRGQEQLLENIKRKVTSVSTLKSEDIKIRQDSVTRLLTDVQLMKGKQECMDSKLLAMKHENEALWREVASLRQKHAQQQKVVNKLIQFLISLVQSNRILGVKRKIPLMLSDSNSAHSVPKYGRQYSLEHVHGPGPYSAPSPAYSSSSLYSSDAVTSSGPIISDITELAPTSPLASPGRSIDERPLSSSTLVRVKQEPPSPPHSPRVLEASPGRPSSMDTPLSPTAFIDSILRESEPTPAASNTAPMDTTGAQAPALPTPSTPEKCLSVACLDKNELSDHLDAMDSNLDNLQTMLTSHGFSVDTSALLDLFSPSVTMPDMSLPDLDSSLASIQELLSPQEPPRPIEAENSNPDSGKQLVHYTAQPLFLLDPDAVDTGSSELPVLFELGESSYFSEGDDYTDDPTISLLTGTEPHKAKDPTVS

[6] = reduction of Shn3 3'UTR-driven luciferase in osteoblasts – cell-based, Clone20 osteoblasts, firefly luciferase, cherry-picked, dose response (AID 624132); assay type: functional;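 also: firefly luciferase luminescence from reporter carrying the Shn3 3'UTR in osteoblasts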
[7] = loss of viability in HepG2 cells – cell-based, CellTiter-Glo, cherry-picked, cytotoxicity control for Shn3 inhibitor project, dose response (AID 624134); assay type: functional
[8] = non-specific 3'UTR reporter inhibition in Clone20-Shn3RL – cell-based, Renilla luciferase, cherry-picked, counter-screen for Shn3 inhibitor project, dose response (AID 624133); assay type: functional
Prothrombin = Prothrombin (Homo sapiens, UniProt P00734); test: Thrombin 1536 HTS Dose Response Confirmation. [Related pubchem assays: 1046 (Thrombin 1536 HTS; hits were confirmed in this assay)]; assay type: functional
cells [9] = assay type: functional, cell-based
cells [10] = assay type: functional, cell-based; remark: listed apart in the source
Nonstructural protein 1 = Nonstructural protein 1 (Influenza A virus, UniProt Q194T2); assay type: functional, Influenza A virus (A/California/07/2009(H1N1))
INS1 = test: INS-1E survival protection against cytokine death – cell-based, luminescence, retest, dose response (AID 449756); assay type: functional; details: Rattus norvegicus;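 also: cell death triggered by IL-1 beta plus TNF-alpha plus IFN-gamma mixture; protective hits raise ATP signal compared with cytokine alone wells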
[11] = test system: Streptococcus sp. 'group A'; test: Streptococcus pyogenes SK(-)GAS viability under kanamycin – luminescence, BacTiterGlo, confirmation, counter-screen for streptokinase expression inhibitor project, dose response (AID 1900); assay type: functional, organism-based
Streptokinase A = biological target: T3, Streptokinase A (Streptococcus pyogenes serotype M1, UniProt P10520); test: viability-normalized secreted streptokinase activity reduction – plasminogen activation absorbance, OD405, dose response (AID 1914); assay type: functional, Streptococcus pyogenes M1 GAS;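 also: secreted streptokinase activity via plasminogen activation per viability signal from cell pellet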
T3 sequence (P10520 whole entry): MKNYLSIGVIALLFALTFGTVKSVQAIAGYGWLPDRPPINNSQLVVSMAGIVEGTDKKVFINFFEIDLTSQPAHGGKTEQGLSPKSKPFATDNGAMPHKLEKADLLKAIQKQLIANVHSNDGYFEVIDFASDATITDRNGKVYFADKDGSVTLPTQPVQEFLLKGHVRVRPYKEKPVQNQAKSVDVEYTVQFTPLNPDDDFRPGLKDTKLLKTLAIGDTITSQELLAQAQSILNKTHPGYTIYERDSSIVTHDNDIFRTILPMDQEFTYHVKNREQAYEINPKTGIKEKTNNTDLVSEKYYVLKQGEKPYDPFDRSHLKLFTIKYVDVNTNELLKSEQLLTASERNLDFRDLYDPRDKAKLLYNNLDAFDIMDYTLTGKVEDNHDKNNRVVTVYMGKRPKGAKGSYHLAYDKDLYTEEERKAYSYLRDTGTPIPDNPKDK

Streptococcus = test: GAS UMAA2166 growth inhibition – luminescence, BacTiterGlo, counter-screen for streptokinase expression inhibitor project, dose response (AID 1915); assay type: functional, organism-based;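 also: potency for reduction of bacterial viability or growth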
[12] = biological target: T2, Heat shock factor protein 1; test: enhancement of HSF1-driven luciferase signal – cell-based, NIH3T3, luminescence, dose retest, confirmation (AID 435004); assay type: functional;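 also: stress induced by proteasome inhibitor MG132 added 30 min after compound; luciferase reporter driven by HSF1 response element in NIH3T3 cells; actives raise luminescence as potentiators of the MG132 stress response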
[13] = viability of uninfected HEp-2 cells – cell-based, HTS, cytotoxicity control for RSV inhibitor project, dose response (AID 2410); assay type: functional; details: human respiratory syncytial virus

Cytochrome P450 2D6, sequence (P10635 whole entry): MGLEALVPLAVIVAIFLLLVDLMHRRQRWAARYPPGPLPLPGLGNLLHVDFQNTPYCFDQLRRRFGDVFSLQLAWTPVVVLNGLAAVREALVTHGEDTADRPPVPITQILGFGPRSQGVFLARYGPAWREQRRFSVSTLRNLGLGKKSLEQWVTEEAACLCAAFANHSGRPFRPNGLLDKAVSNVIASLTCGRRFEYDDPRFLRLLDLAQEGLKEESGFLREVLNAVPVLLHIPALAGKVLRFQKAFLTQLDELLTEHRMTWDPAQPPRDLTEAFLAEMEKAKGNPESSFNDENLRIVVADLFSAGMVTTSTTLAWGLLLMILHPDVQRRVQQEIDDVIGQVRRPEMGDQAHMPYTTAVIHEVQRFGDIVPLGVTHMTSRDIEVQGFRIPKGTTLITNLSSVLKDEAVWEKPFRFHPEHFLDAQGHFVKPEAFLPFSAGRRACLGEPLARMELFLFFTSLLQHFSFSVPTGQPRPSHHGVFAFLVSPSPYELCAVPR
Cytochrome P450 2C9, sequence (P11712 whole entry): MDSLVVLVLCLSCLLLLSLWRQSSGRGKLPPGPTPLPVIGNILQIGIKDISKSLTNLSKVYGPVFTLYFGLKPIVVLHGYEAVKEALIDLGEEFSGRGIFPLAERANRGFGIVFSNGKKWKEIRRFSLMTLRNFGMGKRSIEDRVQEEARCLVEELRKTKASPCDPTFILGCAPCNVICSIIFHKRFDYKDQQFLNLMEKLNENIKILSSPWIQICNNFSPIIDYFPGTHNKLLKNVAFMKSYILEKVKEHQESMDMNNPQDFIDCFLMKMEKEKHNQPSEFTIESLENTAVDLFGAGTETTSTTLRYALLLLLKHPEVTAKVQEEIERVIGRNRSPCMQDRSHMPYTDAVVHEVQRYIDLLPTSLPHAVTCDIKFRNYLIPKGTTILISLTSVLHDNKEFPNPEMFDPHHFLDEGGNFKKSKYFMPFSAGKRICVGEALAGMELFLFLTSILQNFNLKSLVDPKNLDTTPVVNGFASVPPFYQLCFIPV
Nonstructural protein 1, sequence (Q194T2 whole entry): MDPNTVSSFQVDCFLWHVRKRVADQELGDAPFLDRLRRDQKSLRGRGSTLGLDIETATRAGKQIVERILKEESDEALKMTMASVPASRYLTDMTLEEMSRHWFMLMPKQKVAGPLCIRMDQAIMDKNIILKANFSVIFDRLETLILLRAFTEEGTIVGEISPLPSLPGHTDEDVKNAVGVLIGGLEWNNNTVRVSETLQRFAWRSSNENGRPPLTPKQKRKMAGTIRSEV

## O=S1(=O)N(CCN2CC=C(c3c[nH]c4cc(F)ccc34)CC2)c2cccc3c2N1CCC3
[1]
  CC50: > 40 µM (active)
Cytochrome P450 2C9
  AC50: 25.1 µM (inconclusive)

## N#Cc1ccc(/C=C/C(=O)c2ccco2)cc1
[2]
  EC50: 16.6 µM (active)
[3]
  EC50: 17.2 µM (active)

## Cc1cccc(N/C=C/C(=C(C#N)C#N)N(C)C)c1
[4]
  IC50: 15.6 µM (not active)

## O=C(c1ccco1)N1CCC2(CC1)CN(Cc1ccncc1)C2
Cytochrome P450 2D6
  AC50: 12.6 µM (inconclusive)

## O=C(CCN1C(=O)c2ccccc2C1=O)NC(=S)Nc1cccc(Cl)c1
Cytochrome P450 2D6
  AC50: 0.0447 µM (inconclusive)

## CCOC(=O)c1c(CSCc2ccccc2)oc2ccc(O)c(CN(C)C)c12
[5]
  EC50: > 195 µM (not active)
[6]
  AC50: 9.79 µM (active)
[7]
  AC50: 22.2 µM (active)
[8]
  AC50: 10.7 µM (active)

## COc1cccc([C@@H]2Oc3ccc(OC)cc3C(=O)[C@H]2O)c1
Cytochrome P450 2D6
  AC50: 3.16 µM (inconclusive)

## Cc1ccc(S(=O)(=O)CC(=O)Nc2c(C)n(C)n(-c3ccccc3)c2=O)cc1
Prothrombin
  IC50: 3.58 µM (active)

## COc1cnc(-c2ccccn2)nc1N(C)C
Cells [9]
  EC50: 8.34 µM (active)
Cells [10]
  EC50: 214 µM (active)
Nonstructural protein 1
  IC50: 1.92 µM (active)
INS1
  AC50: 8.4 µM (active)

## CCn1c(-c2ccccc2Cl)nn(CC(=O)Nc2cc(Cl)ccc2Cl)c1=S
Cytochrome P450 2D6
  AC50: 25.1 µM (inconclusive)
Cytochrome P450 2C9
  AC50: 25.1 µM (inconclusive)

## O=C1OC(Nc2ccc(F)c([N+](=O)[O-])c2)c2ccccc21 (stereo not drawn)
Prothrombin
  IC50: > 50 µM (not active)

## Clc1ccccc1-c1nccc(NCc2ccccc2)n1
Cytochrome P450 2D6
  AC50: 39.8 µM (inconclusive)

## CCCC(=O)n1nc(-c2ccco2)nc1N
Prothrombin
  IC50: 1.28 µM (active)

## COc1ccc(C(C)C)cc1S(=O)(=O)Nc1ccncc1
Prothrombin
  IC50: > 50 µM (not active)

## O=C1c2cccc3c([N+](=O)[O-])ccc(c23)C(=O)N1O
[11]
  EC50: 0.999 µM (active)
Streptokinase A
  EC50: > 150 µM (not active)
[1]
  CC50: 17.8 µM (active)
Streptococcus
  EC50: 15.8 µM (active)
[12]
  EC50: 244 µM (active)

## CCC(=O)Nc1ccc(C(=O)CSc2nc3ccccc3cc2CC)cc1
Prothrombin
  IC50: > 50 µM (not active)

## Cn1nc(-c2ccc(Cl)cc2)c2cc(C(=O)N3CCN(c4ccccn4)CC3)sc21
[13]
  CC50: 3.7 µM (active)
[6]
  AC50: 4.02 µM (active)
[7]
  AC50: > 70 µM (inactive)
[8]
  AC50: 28.6 µM (active)
